Experimental findings from patent publication US20090029983A1, “NOVEL HETEROCYCLIC COMPOUNDS HAVING ANTI-HBV ACTIVITY” (priority 2005, published 2009) are described below.

What is called EC50 is the midpoint of the concentration-response curve.

The test system of the experiment is HBV. The experiment in a line: HBV screening assay (viral DNA in baculovirus-HBV transduced HepG2 cells). In kind it is cell-based. To be noted: Hepatitis B virus, HepG2, 72 h, read-out: EC50 (antiviral activity), HBV-transduced HepG2 cells, three days with compound, viral DNA by ELISA. The method, then: HepG2 cells were transduced using a baculovirus to deliver the HBV genome essentially as previously described (Delaney et al. in Hepatology 1998; 28: 1134-1146). Transduced cells were cultured in supplemented EMEM media with 10% fetal bovine serum in a 5% CO2 incubator at 37° C. for three days in the presence of test compounds. The cells were lysed in a buffer containing 0.5% NP-40 and […] proteinase K. A solid-phase hybridization was performed to capture the viral DNA and to label the target DNA with Digoxigenin-labeled DNA probes. The viral DNA was detected by ELISA, using horseradish peroxidase-conjugated anti-digoxigenin antibodies.
The EC50 values were determined using ExcelFit software from the inhibition values of a titration curve for each compound. For CC50 determinations, the same titration of compounds was co-cultured with non-transduced HepG2 for three days under the conditions described above. The Promega CellTiter 96 Aqueous One Solution Cell Proliferation Assay was used to measure cell proliferation/viability. The CC50 values were determined using ExcelFit software from the inhibition values of the titration curve for each compound.
(In an ELISA, binding on a coated surface is turned into a signal by an enzyme label.)
In the case of `Cc1ccc(CNC(=O)CC2CCc3c2nc2sc(C(N)=O)c(N)c2c3-c2cccs2)o1` (centres unmarked) [Compound 43, 3-Amino-7-{[(5-methyl-furan-2-ylmethyl)-carbamoyl]-methyl}-4-thiophen-2-yl-6,7-dihydro-5H-cyclopenta[b]thieno[3,2-e]pyridine-2-carboxylic acid amide], the EC50 is more than 10 µM.

For `CCOC(=O)CN1Cc2nc3sc(C(N)=O)c(N)c3c(-c3cccs3)c2C1` [Compound 18, 3-Amino-6-carbethoxymethyl-4-thiophen-2-yl-6,7-dihydro-5H-1-thia-6,8-diaza-s-indacene-2-carboxylic acid amide], the EC50 is more than 10 µM.

Regarding `NC(=O)c1sc2nc3c(c(-c4cccs4)c2c1N)CN(CCN1C(=O)c2ccccc2C1=O)C3` [Compound 19, 3-Amino-6-[2-(1,3-dioxo-1,3-dihydro-isoindol-2-yl)-ethyl]-4-thiophen-2-yl-6,7-dihydro-5H-1-thia-6,8-diaza-s-indacene-2-carboxylic acid amide], the EC50 was more than 10 µM.

On to `NC(=O)c1sc2nc3c(c(-c4cccs4)c2c1N)CN(C(=O)CCl)C3` [Compound 104, 3-Amino-6-(2-chloro-acetyl)-4-thiophen-2-yl-6,7-dihydro-5H-1-thia-6,8-diaza-s-indacene-2-carboxylic acid amide], for which the concentration giving a half-maximal response (EC50) is 1 to 10 µM.

For `NC(=O)c1sc2nc3c(c(-c4cccs4)c2c1N)CCC1CCCCC31` (centres unmarked) [Compound 107, 8-Amino-7-thiophen-2-yl-1,2,3,4,4a,5,6,11b-octahydro-10-thia-11-aza-cyclopenta[b]phenanthrene-9-carboxylic acid amide], the EC50 is more than 10 µM.

As for `COC1CCCCN1CCCN1Cc2nc3sc(C(N)=O)c(N)c3c(-c3cccs3)c2C1` (centres unmarked) [Compound 26, 3-Amino-6-[3-(2-methoxy-piperidin-1-yl)-propyl]-4-thiophen-2-yl-6,7-dihydro-5H-1-thia-6,8-diaza-s-indacene-2-carboxylic acidamide], the EC50 was more than 10 µM.

On to `N#CCCC1CCCc2c1nc1sc(C(N)=O)c(N)c1c2-c1cccs1` (centres unmarked) [Compound 62, 3-Amino-8-(2-cyano-ethyl)-4-thiophen-2-yl-5,6,7,8-tetrahydro-thieno[2,3-b]quinoline-2-carboxylic acid amide], for which the 50% effective concentration (EC50) is more than 10 µM.

With `NC(=O)c1sc2nc3c(c(-c4cccs4)c2c1N)CCC3CC(=O)O` (centres unmarked) [Compound 36, 3-Amino-7-carboxymethyl-4-thiophen-2-yl-6,7-dihydro-5H-cyclopenta[b]thieno[3,2-e]pyridine-2-carboxylic acid amide], the EC50 was more than 10 µM.

Consider `CC(C)(C)OC(=O)N1CCc2nc3sc(C(N)=O)c(N)c3c(-c3cccs3)c2C1` [Compound 32, 3-Amino-6-tert-butyloxycarbonyl-4-thiophen-2-yl-5,6,7,8-tetrahydro-thieno[2,3-b][1,6]naphthyridine-2-carboxylic acidamide], for which the half-maximal effective concentration (EC50) is more than 10 µM.

`NC(=O)c1sc2nc3c(c(-c4cccs4)c2c1N)CN(CCCN1CCN(c2ncccn2)CC1)C3` [Compound 25, 3-Amino-6-[3-(4-pyrimidin-2-yl-piperazin-1-yl)-propyl]-4-thiophen-2-yl-6,7-dihydro-5H-1-thia-6,8-diaza-s-indacene-2-carboxylicacid amide]: the 50% effective concentration (EC50) is more than 10 µM.

For the molecule `NC(=O)c1sc2nc3c(c(-c4cccs4)c2c1N)CN(CC(=O)c1ccc(Cl)cc1)C3` [Compound 12, 3-Amino-6-[2-(4-chloro-phenyl)-2-oxo-ethyl]-4-thiophen-2-yl-6,7-dihydro-5H-1-thia-6,8-diaza-s-indacene-2-carboxylic acidamide], the EC50 lay within 1 to 10 µM.

For `NC(=O)c1sc2nc3c(c(-c4cccs4)c2c1N)CN(C(=S)Nc1ccc(F)cc1)C3` [Compound 88, 3-Amino-6-(4-fluoro-phenylthiocarbamoyl)-4-thiophen-2-yl-6,7-dihydro-5H-1-thia-6,8-diaza-s-indacene-2-carboxylic acid amide], the EC50 was more than 10 µM.

Consider `NC(=O)c1sc2nc3c(c(-c4cccs4)c2c1N)CN(CC1CCCCO1)C3` (centres unmarked) [Compound 4, 3-Amino-6-(tetrahydro-pyran-2-ylmethyl)-4-thiophen-2-yl-6,7-dihydro-5H-1-thia-6,8-diaza-s-indacene-2-carboxylic acid amide], for which the EC50 was more than 10 µM.

Take `NC(=O)c1sc2nc3c(c(-c4cccs4)c2c1N)CN(C(=S)NCCCN1CCOCC1)C3` [Compound 94, 3-Amino-6-(3-morpholin-4-yl-propylthiocarbamoyl)-4-thiophen-2-yl-6,7-dihydro-5H-1-thia-6,8-diaza-s-indacene-2-carboxylic acid amide]: the EC50 is more than 10 µM.

As to `CCCCCCCC1CCc2c1nc1sc(C(N)=O)c(N)c1c2-c1cccs1` (centres unmarked) [Compound 60, 3-Amino-7-heptyl-4-thiophen-2-yl-6,7-dihydro-5H-cyclopenta[b]thieno[3,2-e]pyridine-2-carboxylic acid amide], the EC50 was more than 10 µM.

Take `NC(=O)c1sc2nc3c(c(-c4cccs4)c2c1N)CNC3` [Compound 2, 3-Amino-4-thiophen-2-yl-6,7-dihydro-5H-1-thia-6,8-diaza-s-indacene-2-carboxylic acidamide]: the EC50 is 1 to 10 µM.

As for `CC(C)(C)OC(=O)N1CCc2c(nc3sc(C(N)=O)c(N)c3c2-c2cccs2)C1` [Compound 30, 3-Amino-7-tert-butyloxycarbonyl-4-thiophen-2-yl-5,6,7,8-tetrahydro-1-thia-7,9-diaza-cyclopenta[b]naphthalene-2-carboxylic acid amide], the EC50 is more than 10 µM.

For `CCOC1CCc2c1nc1sc(C(N)=O)c(N)c1c2-c1cccs1` (centres unmarked) [Compound 35, 3-Amino-7-ethoxy-4-thiophen-2-yl-6,7-dihydro-5H-cyclopenta[b]thieno[3,2-e]pyridine-2-carboxylic acid amide], the EC50 is less than 1 µM.

As for `CCNC(=O)N1Cc2nc3sc(C(N)=O)c(N)c3c(-c3cccs3)c2C1` [Compound 98, 3-Amino-4-thiophen-2-yl-5,7-dihydro-1-thia-6,8-diaza-s-indacene-2,6-dicarboxylicacid 2-amide 6-ethylamide], the 50% effective concentration (EC50) was less than 1 µM.

For `CCOC(=O)C1CCN(C(=O)CC2CCc3c2nc2sc(C(N)=O)c(N)c2c3-c2cccs2)CC1` (centres unmarked) [Compound 56, 1-[2-(3-Amino-2-carbamoyl-4-thiophen-2-yl-6,7-dihydro-5H-cyclopenta[b]thieno[3,2-e]pyridin-7-yl)-acetyl]-piperidine-4-carboxylic acid ethyl ester], the half-maximal effective concentration (EC50) was more than 10 µM.

Take `NC(=O)c1sc2nc3c(c(-c4cccs4)c2c1N)CN(C(=S)Nc1ccccc1)C3` [Compound 79, 3-Amino-6-phenylthiocarbamoyl-4-thiophen-2-yl-6,7-dihydro-5H-1-thia-6,8-diaza-s-indacene-2-carboxylic acid amide]: the EC50 was more than 10 µM.

With `NC(=O)c1sc2nc3c(c(-c4cccs4)c2c1N)CN(C(=S)Nc1cccc(C(F)(F)F)c1)C3` [Compound 87, 3-Amino-4-thiophen-2-yl-6-(3-trifluoromethyl-phenylthiocarbamoyl)-6,7-dihydro-5H-1-thia-6,8-diaza-s-indacene-2-carboxylic acid amide], the EC50 was more than 10 µM.

As to `CN1CCCC1CCNC(=O)CC1CCc2c1nc1sc(C(N)=O)c(N)c1c2-c1cccs1` (centres unmarked) [Compound 55, 3-Amino-7-{[2-(1-methyl-pyrrolidin-2-yl)-ethylcarbamoyl]-methyl}-4-thiophen-2-yl-6,7-dihydro-5H-cyclopenta[b]thieno[3,2-e]pyridine-2-carboxylic acid amide], the concentration for a half-maximal effect (EC50) is more than 10 µM.

In the case of `CCOC(=O)CC1CCCc2c1nc1sc(C(N)=O)c(N)c1c2-c1cccs1` (centres unmarked) [Compound 71, 3-Amino-8-carbethoxymethyl-4-thiophen-2-yl-5,6,7,8-tetrahydro-thieno[2,3-b]quinoline-2-carboxylic acid amide], the EC50 was more than 10 µM.

In the case of `COc1cc(CN2Cc3nc4sc(C(N)=O)c(N)c4c(-c4cccs4)c3C2)cc(OC)c1` [Compound 24, 3-Amino-6-(3,5-dimethoxy-benzyl)-4-thiophen-2-yl-6,7-dihydro-5H-1-thia-6,8-diaza-s-indacene-2-carboxylic acid amide], the EC50 is more than 10 µM.

Regarding `NC(=O)c1sc2nc3c(c(-c4cccs4)c2c1N)CCNC3` [Compound 29, 3-Amino-4-thiophen-2-yl-5,6,7,8-tetrahydro-1-thia-7,9-diaza-cyclopenta[b]naphthalene-2-carboxylic acidamide], the EC50 was less than 1 µM.

For the molecule `CCOC(=O)CC1CCc2c1nc1sc(C(N)=O)c(N)c1c2-c1cccs1` (centres unmarked) [Compound 41, 3-Amino-7-carbethoxymethyl-4-thiophen-2-yl-6,7-dihydro-5H-cyclopenta[b]thieno[3,2-e]pyridine-2-carboxylic acid amide], the concentration for a half-maximal effect (EC50) is more than 10 µM.

Consider `CC(C)CN1Cc2nc3sc(C(N)=O)c(N)c3c(-c3cccs3)c2C1` [Compound 14, 3-Amino-6-isobutyl-4-thiophen-2-yl-6,7-dihydro-5H-1-thia-6,8-diaza-s-indacene-2-carboxylic acid amide], for which the EC50 was more than 10 µM.

In the case of `NC(=O)c1sc2nc3c(c(-c4cccs4)c2c1N)CN(C(=S)Nc1ccsc1)C3` [Compound 100, 3-Amino-4-thiophen-2-yl-5,7-dihydro-1-thia-6,8-diaza-s-indacene-2,6-dicarboxylicacid 2-amide 5-thiophen-3-ylamide], the EC50 was less than 1 µM.
